Measured values taken from ChEMBL document CHEMBL1201861, “Genomics of Drug Sensitity in Cancer screening data, Wellcome Trust Sanger Institute”.
pIC50: −log10 of the molar value.

Key:
Test in all cases: cells
Assay type in all cases: functional, cell-based
Conditions in all cases: Homo sapiens
COLO-800 = system: COLO-800;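 also: growth inhibition of COLO-800 cells, read out with a cell viability assay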
Description: SANGER: Inhibition of human COLO-800 cell growth in a cell viability assay.

EM-2 = system: EM-2;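 also: growth inhibition of EM-2 cells, read out with a cell viability assay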
Description: SANGER: Inhibition of human EM-2 cell growth in a cell viability assay.

A2058 = system: A2058;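 also: reduction of A2058 cell growth, read out with a viability assay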
Description: SANGER: Inhibition of human A2058 cell growth in a cell viability assay.

HL-60 = system: HL-60;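 also: growth inhibition of human HL-60 cells, read out with a cell viability assay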
Description: SANGER: Inhibition of human HL-60 cell growth in a cell viability assay.

BE-13 = system: BE-13;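 also: growth inhibition of human BE-13 cells, measured with a cell viability assay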
Description: SANGER: Inhibition of human BE-13 cell growth in a cell viability assay.

NCI-H1299 = system: NCI-H1299;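 also: growth inhibition of human NCI-H1299 cells, read out by a cell viability assay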
Description: SANGER: Inhibition of human NCI-H1299 cell growth in a cell viability assay.

NCI-H1650 = system: NCI-H1650;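 also: growth inhibition of human NCI-H1650 cells measured by a cell viability assay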
Description: SANGER: Inhibition of human NCI-H1650 cell growth in a cell viability assay.

PSN1 = system: PSN1;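 also: suppression of growth of human PSN1 cells, read out by a cell viability assay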
Description: SANGER: Inhibition of human PSN1 cell growth in a cell viability assay.

UACC-257 = system: UACC-257
Description: SANGER: Inhibition of human UACC-257 cell growth in a cell viability assay.

Becker = system: Becker;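 also: growth inhibition of Becker cells, read out with a cell viability assay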
Description: SANGER: Inhibition of human Becker cell growth in a cell viability assay.

LS-123 = system: LS-123
Description: SANGER: Inhibition of human LS-123 cell growth in a cell viability assay.

KE-37 = system: KE-37;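 also: growth inhibition of KE-37 cells, read out with a cell viability assay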
Description: SANGER: Inhibition of human KE-37 cell growth in a cell viability assay.

OVCAR-5 = system: OVCAR-5;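 also: growth inhibition of human OVCAR-5 cells, read out with a cell viability assay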
Description: SANGER: Inhibition of human OVCAR-5 cell growth in a cell viability assay.

GI-ME-N = system: GI-ME-N;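 also: growth inhibition of human GI-ME-N cells, read out with a cell viability assay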
Description: SANGER: Inhibition of human GI-ME-N cell growth in a cell viability assay.

KM-H2 = system: KM-H2;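 also: growth inhibition of KM-H2 cells, read out by a cell viability assay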
Description: SANGER: Inhibition of human KM-H2 cell growth in a cell viability assay.

MEG-01 = system: MEG-01;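 also: growth inhibition of MEG-01 cells, read out by a cell viability assay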
Description: SANGER: Inhibition of human MEG-01 cell growth in a cell viability assay.

D-263MG = system: D-263MG
Description: SANGER: Inhibition of human D-263MG cell growth in a cell viability assay.

MMAC-SF = system: MMAC-SF;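 also: growth inhibition of human MMAC-SF cells, read out with a cell viability assay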
Description: SANGER: Inhibition of human MMAC-SF cell growth in a cell viability assay.

SK-MEL-2 = system: SK-MEL-2;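 also: growth inhibition of human SK-MEL-2 cells measured with a cell viability assay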
Description: SANGER: Inhibition of human SK-MEL-2 cell growth in a cell viability assay.

A101D = system: A101D;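 also: growth inhibition of the cell line, measured with a viability assay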
Description: SANGER: Inhibition of human A101D cell growth in a cell viability assay.

KNS-81-FD = system: KNS-81-FD;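 also: growth inhibition of KNS-81-FD cells, read out with a cell viability assay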
Description: SANGER: Inhibition of human KNS-81-FD cell growth in a cell viability assay.

ALL-PO = system: ALL-PO;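 also: growth inhibition of ALL-PO cells, read out by a cell viability assay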
Description: SANGER: Inhibition of human ALL-PO cell growth in a cell viability assay.

NB10 = system: NB10;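 also: growth inhibition of NB10 cells, read out by a cell viability assay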
Description: SANGER: Inhibition of human NB10 cell growth in a cell viability assay.

NCI-H322M = system: NCI-H322M;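 also: cell viability assay measuring inhibition of growth of human NCI-H322M cells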
Description: SANGER: Inhibition of human NCI-H322M cell growth in a cell viability assay.

NTERA-2-cl-D1 = system: NTERA-2-cl-D1;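 also: inhibition of cell growth, measured with a cell viability assay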
Description: SANGER: Inhibition of human NTERA-S-cl-D1 cell growth in a cell viability assay.

NB5 = system: NB5;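 also: growth inhibition of NB5 cells, read out as cell viability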
Description: SANGER: Inhibition of human NB5 cell growth in a cell viability assay.

SJSA-1 = system: SJSA-1;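 also: growth inhibition of human SJSA-1 cells, read out through a cell viability measurement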
Description: SANGER: Inhibition of human SJSA-1 cell growth in a cell viability assay.

DU-4475 = system: DU-4475
Description: SANGER: Inhibition of human DU-4475 cell growth in a cell viability assay.

ES7 = system: ES7;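 also: growth inhibition of cultured human ES7 cells, read out as cell viability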
Description: SANGER: Inhibition of human ES7 cell growth in a cell viability assay.

SH-4 = system: SH-4;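 also: growth inhibition of SH-4 cells, read out with a cell viability assay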
Description: SANGER: Inhibition of human SH-4 cell growth in a cell viability assay.

EW-18 = system: EW-18;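 also: growth inhibition of EW-18 cells, read out by a cell viability assay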
Description: SANGER: Inhibition of human EW-18 cell growth in a cell viability assay.

HT = system: HT
Description: SANGER: Inhibition of human HT cell growth in a cell viability assay.

MN-60 = system: MN-60;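 also: growth inhibition of the MN-60 cell line, determined with a cell viability assay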
Description: SANGER: Inhibition of human MN-60 cell growth in a cell viability assay.

KYSE-410 = system: KYSE-410;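 also: growth inhibition of KYSE-410 cells, measured through a cell viability readout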
Description: SANGER: Inhibition of human KYSE-410 cell growth in a cell viability assay.

IST-MES1 = system: IST-MES1;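 also: growth inhibition of IST-MES1 cells, measured with a cell viability assay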
Description: SANGER: Inhibition of human IST-MES1 cell growth in a cell viability assay.

SNU-5 = system: SNU-5;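 also: cell viability readout used to measure growth inhibition in human NCI-SNU-5 cells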
Description: SANGER: Inhibition of human NCI-SNU-5 cell growth in a cell viability assay.

no-11 = system: no-11;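 also: growth inhibition of human NO-11 cells, read out with a cell viability assay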
Description: SANGER: Inhibition of human no-11 cell growth in a cell viability assay.

IST-MEL1 = system: IST-MEL1;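 also: growth inhibition of the cell line, read out with a cell viability assay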
Description: SANGER: Inhibition of human IST-MEL1 cell growth in a cell viability assay.

KNS-42 = system: KNS-42;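 also: growth inhibition of KNS-42 cells, read out with a cell viability assay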
Description: SANGER: Inhibition of human KNS-42 cell growth in a cell viability assay.

ML-2 = system: ML-2;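 also: growth inhibition of ML-2 cells, measured with a cell viability readout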
Description: SANGER: Inhibition of human ML-2 cell growth in a cell viability assay.

BT-474 = system: BT-474
Description: SANGER: Inhibition of human BT-474 cell growth in a cell viability assay.

NCI-H2170 = system: NCI-H2170;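 also: cell viability assay measuring growth inhibition of human NCI-H2170 cancer cells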
Description: SANGER: Inhibition of human NCI-H2170 cell growth in a cell viability assay.

SF-268 = system: SF-268;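 also: growth inhibition of SF-268 cells determined with a cell viability assay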
Description: SANGER: Inhibition of human SF268 cell growth in a cell viability assay.

K562 = system: K562
Description: SANGER: Inhibition of human K-562 cell growth in a cell viability assay.

GT3TKB = system: GT3TKB;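 also: growth inhibition of the cell line, read out with a cell viability assay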
Description: SANGER: Inhibition of human GT3TKB cell growth in a cell viability assay.

L-540 = system: L-540;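 also: growth inhibition of the human L-540 cell line, read out with a viability assay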
Description: SANGER: Inhibition of human L-540 cell growth in a cell viability assay.

A2780 = system: A2780;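 also: growth inhibition of A2780 cells, read out with a cell viability assay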
Description: SANGER: Inhibition of human A2780 cell growth in a cell viability assay.

EW-11 = system: EW-11;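 also: growth inhibition of human EW-11 cells, measured with a cell viability assay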
Description: SANGER: Inhibition of human EW-11 cell growth in a cell viability assay.

VA-ES-BJ = system: VA-ES-BJ;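 also: growth inhibition of the VA-ES-BJ cell line, read out by a cell viability assay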
Description: SANGER: Inhibition of human VA-ES-BJ cell growth in a cell viability assay.

GOTO = system: GOTO;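 also: growth inhibition of GOTO cells, read out by a cell viability assay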
Description: SANGER: Inhibition of human GOTO cell growth in a cell viability assay.

SK-OV-3 = system: SK-OV-3;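 also: growth inhibition of SK-OV-3 human cells, read out with a cell viability assay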
Description: SANGER: Inhibition of human SK-OV-3 cell growth in a cell viability assay.

LB373-MEL-D = system: LB373-MEL-D;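 also: growth inhibition of the cell line, read out in a cell viability assay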
Description: SANGER: Inhibition of human LB373-MEL-D cell growth in a cell viability assay.

RMG-I = system: RMG-I;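 also: growth inhibition of human RMG-I cells, read out with a cell viability assay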
Description: SANGER: Inhibition of human RMG-I cell growth in a cell viability assay.

COLO-320-HSR = system: COLO-320-HSR;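 also: growth inhibition of COLO-320-HSR cells, determined with a cell viability assay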
Description: SANGER: Inhibition of human COLO-320-HSR cell growth in a cell viability assay.

AM-38 = system: AM-38;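 also: growth inhibition of AM-38 cells of human origin, read out by a cell viability assay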
Description: SANGER: Inhibition of human AM-38 cell growth in a cell viability assay.

CP66-MEL = system: CP66-MEL;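 also: growth inhibition of CP66-MEL cells determined in a cell viability assay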
Description: SANGER: Inhibition of human CP66-MEL cell growth in a cell viability assay.

P12-Ichikawa = system: P12-Ichikawa
TE-10 = system: TE-10;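 also: growth inhibition of TE-10 cells, measured by a cell viability assay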
Description: SANGER: Inhibition of human TE-10 cell growth in a cell viability assay.

NCI-H446 = system: NCI-H446
Description: SANGER: Inhibition of human NCI-H446 cell growth in a cell viability assay.

COR-L23 = system: COR-L23
Description: SANGER: Inhibition of human COR-L23 cell growth in a cell viability assay.

NKM-1 = system: NKM-1
Description: SANGER: Inhibition of human NKM-1 cell growth in a cell viability assay.

ES4 = system: ES4
Description: SANGER: Inhibition of human ES4 cell growth in a cell viability assay.

SF-539 = system: SF-539
Description: SANGER: Inhibition of human SF539 cell growth in a cell viability assay.

LB2241-RCC = system: LB2241-RCC
Description: SANGER: Inhibition of human LB2241-RCC cell growth in a cell viability assay.

RXF 393 = system: RXF 393
Description: SANGER: Inhibition of human RXF393 cell growth in a cell viability assay.

L-363 = system: L-363
Description: SANGER: Inhibition of human L-363 cell growth in a cell viability assay.

Fc1cc(-c2cc[nH]/c(=N/c3ccc(-n4cnc(N5CCOCC5)n4)cc3)n2)cc(N2CCOCC2)c1
pIC50 (COLO-800): 5.70 | pIC50 (EM-2): 5.94 | pIC50 (A2058): 6.30 | pIC50 (HL-60): 6.26 | pIC50 (BE-13): 5.96 | pIC50 (NCI-H1299): 6.44 | pIC50 (NCI-H1650): 6.20 | pIC50 (PSN1): < 5.29 | pIC50 (UACC-257): 5.91 | pIC50 (Becker): 5.97 | pIC50 (LS-123): 5.90 | pIC50 (KE-37): 6.54 | pIC50 (OVCAR-5): 6.74 | pIC50 (GI-ME-N): 5.84 | pIC50 (KM-H2): 5.87 | pIC50 (MEG-01): 6.17 | pIC50 (D-263MG): 6.14 | pIC50 (MMAC-SF): 5.61 | pIC50 (SK-MEL-2): 6.20 | pIC50 (A101D): 6.61 | pIC50 (KNS-81-FD): 5.31 | pIC50 (ALL-PO): 6.17 | pIC50 (NB10): 5.89 | pIC50 (NCI-H322M): < 5.29 | pIC50 (NTERA-2-cl-D1): 6.50 | pIC50 (NB5): < 5.29 | pIC50 (SJSA-1): 6.60 | pIC50 (DU-4475): 6.24 | pIC50 (ES7): 6.49 | pIC50 (SH-4): 6.39 | pIC50 (EW-18): 6.07 | pIC50 (HT): 6.20 | pIC50 (MN-60): 6.05 | pIC50 (KYSE-410): 5.89 | pIC50 (IST-MES1): 5.71 | pIC50 (SNU-5): < 5.29 | pIC50 (no-11): 5.87 | pIC50 (IST-MEL1): 6.05 | pIC50 (KNS-42): 5.96 | pIC50 (ML-2): 6.15 | pIC50 (BT-474): 5.95 | pIC50 (NCI-H2170): 6.13 | pIC50 (SF-268): 6.27 | pIC50 (K562): < 5.29 | pIC50 (GT3TKB): 6.52 | pIC50 (L-540): 6.17 | pIC50 (A2780): 6.19 | pIC50 (EW-11): 5.92 | pIC50 (VA-ES-BJ): 6.69 | pIC50 (GOTO): 6.09 | pIC50 (SK-OV-3): 5.68 | pIC50 (LB373-MEL-D): 5.66 | pIC50 (RMG-I): 5.90 | pIC50 (COLO-320-HSR): 6.29 | pIC50 (AM-38): 5.95 | pIC50 (CP66-MEL): 6.09 | pIC50 (P12-Ichikawa): 5.42 | pIC50 (TE-10): 6.52 | pIC50 (NCI-H446): 5.94 | pIC50 (COR-L23): 6.00 | pIC50 (NKM-1): 6.37 | pIC50 (ES4): 5.86 | pIC50 (SF-539): 6.17 | pIC50 (LB2241-RCC): 6.13 | pIC50 (RXF 393): 7.17 | pIC50 (L-363): 6.35

CC(O)(CS(=O)(=O)c1ccc(F)cc1)C(=O)Nc1ccc(C#N)c(C(F)(F)F)c1 (configuration not stated) [BICALUTAMIDE]
pIC50 (COLO-800): < 5.99 | pIC50 (EM-2): < 5.99 | pIC50 (A2058): < 5.99 | pIC50 (HL-60): < 5.99 | pIC50 (BE-13): < 5.99 | pIC50 (NCI-H1299): < 5.99 | pIC50 (NCI-H1650): < 5.99 | pIC50 (PSN1): < 5.99 | pIC50 (UACC-257): < 5.99 | pIC50 (Becker): < 5.99 | pIC50 (LS-123): < 5.99 | pIC50 (KE-37): < 5.99 | pIC50 (OVCAR-5): < 5.99 | pIC50 (GI-ME-N): < 5.99 | pIC50 (KM-H2): < 5.99 | pIC50 (MEG-01): < 5.99 | pIC50 (D-263MG): < 5.99 | pIC50 (MMAC-SF): < 5.99 | pIC50 (SK-MEL-2): < 5.99 | pIC50 (A101D): < 5.99 | pIC50 (KNS-81-FD): < 5.99 | pIC50 (ALL-PO): < 5.99 | pIC50 (NB10): < 5.99 | pIC50 (NCI-H322M): < 5.99 | pIC50 (NTERA-2-cl-D1): < 5.99 | pIC50 (NB5): < 5.99 | pIC50 (SJSA-1): < 5.99 | pIC50 (DU-4475): < 5.99 | pIC50 (ES7): < 5.99 | pIC50 (SH-4): < 5.99 | pIC50 (EW-18): < 5.99 | pIC50 (HT): < 5.99 | pIC50 (MN-60): < 5.99 | pIC50 (KYSE-410): < 5.99 | pIC50 (IST-MES1): < 5.99 | pIC50 (SNU-5): < 5.99 | pIC50 (no-11): < 5.99 | pIC50 (IST-MEL1): < 5.99 | pIC50 (KNS-42): < 5.99 | pIC50 (ML-2): < 5.99 | pIC50 (BT-474): < 5.99 | pIC50 (NCI-H2170): < 5.99 | pIC50 (SF-268): < 5.99 | pIC50 (K562): < 5.99 | pIC50 (GT3TKB): < 5.99 | pIC50 (L-540): < 5.99 | pIC50 (A2780): < 5.99 | pIC50 (EW-11): < 5.99 | pIC50 (VA-ES-BJ): < 5.99 | pIC50 (GOTO): < 5.99 | pIC50 (SK-OV-3): < 5.99 | pIC50 (LB373-MEL-D): < 5.99 | pIC50 (RMG-I): < 5.99 | pIC50 (COLO-320-HSR): < 5.99 | pIC50 (AM-38): < 5.99 | pIC50 (CP66-MEL): < 5.99 | pIC50 (P12-Ichikawa): < 5.99 | pIC50 (TE-10): < 5.99 | pIC50 (NCI-H446): < 5.99 | pIC50 (COR-L23): < 5.99 | pIC50 (NKM-1): < 5.99 | pIC50 (ES4): < 5.99 | pIC50 (SF-539): < 5.99 | pIC50 (LB2241-RCC): < 5.99 | pIC50 (RXF 393): < 5.99 | pIC50 (L-363): < 5.99
